Source: PubChem BioAssay AID179 (DTP/NCI, 2004)
The source made the active and inactive calls.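 How the source made its calls: active means compounds giving half or more protection of infected cells from virus-caused growth loss, again on retest; inactive means the rest.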

Tested on: CEM cells HIV-1 protection, formazan growth assay
Assay: NCI AIDS Antiviral Assay
Conditions: for IC50: measured here: growth of uninfected CEM cells
Summary of the method: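 Screen of anti-HIV-1 activity in human CEM cells using a formazan-based growth measurement at five drug concentrations. Hits with 50% or greater protection were repeated, and confirmation required reproducible complete protection.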

Row | SMILES | EC50 | IC50 | outcome
1 | COc1ccc(/C(=N/O)c2ccccc2-c2nc3ccccc3c(=O)n2-c2ccc(S(=O)(=O)Nc3nccs3)cc2)cc1C | > 50.1 µM | > 50.1 µM | –
2 | O=C1/C(=C/c2ccccc2)CN(C(=O)/C=C/c2ccccc2)C/C1=C\c1ccccc1 | > 100 µM | 14.5 µM | –
3 | O=C1Cc2nc(CO)c(CO)c(CO)c2CO1 | > 1050 µM | > 1050 µM | –
4 | O=C1CNS(=O)(=O)N1 | > 1820 µM | > 1820 µM | –
5 | O=C1C(=O)C(c2ccccc2)S(=O)(=O)C1c1ccccc1 (centres undefined) | – | – | inactive
6 | S=C(S)N1CCNCC1 | – | – | inactive
7 | C=C1C(=O)OC2(C)CCC1CC1OC1(C)CCC=C(C)CCC2O (centres undefined) | > 389 µM | 32.4 µM | –
8 | C=C(Br)CN(CC(=C)Br)C(C)=O | > 200 µM | > 200 µM | –
9 | Cn1c2c(c3ccccc31)CCN=C2C1CCCOC1=O (centres undefined) | > 200 µM | > 200 µM | –
10 | COc1cc(CC2C(=O)OCC2[C@@H](OC(C)=O)c2ccc3c(c2)OCO3)c(Br)c(OC)c1OC (some centres undefined) | > 50.1 µM | 43.7 µM | –
11 | COC(=O)/C=C1\C[C@H]2O[C@@](O)(C1)[C@H](C)C(=O)O[C@H]1C[C@@H](C=C(C)C)O[C@@H](CC3(O)O[C@H](CC[C@H]2O)[C@@H](C)[C@]2(O)CC[C@@H](C)C(=O)C32)[C@H]1C (some centres undefined) | – | – | inactive
12 | C=CCC(N(C)C(=O)[C@H](Cc1ccccc1)NC(=O)OCc1ccccc1)P(=O)(Oc1ccccc1)Oc1ccccc1 (some centres undefined) | > 200 µM | 77.6 µM | –
13 | COc1ccc2[nH]c3c([N+](=O)[O-])ccc(Cl)c3c(=O)c2c1 | – | – | inactive
14 | O=c1c(-c2ccccc2)c2n(c3ccccc13)CCN2 | > 200 µM | > 200 µM | –
15 | CCCNC(=S)NNC(=O)CSc1nc(-c2ccccc2)c(-c2ccccc2)[nH]1 | > 117 µM | 57.5 µM | –
16 | O=C(O)COc1ccc(C(=O)/C(SS/C(C(=O)c2ccc(OCC(=O)O)c(Cl)c2Cl)=C2\C=C(c3ccc(Cl)cc3)SS2)=C2/C=C(c3ccc(Cl)cc3)SS2)c(Cl)c1Cl | – | – | inactive
17 | COc1ccc(C2C(N)=NCC2c2ccccn2)cc1 (centres undefined) | – | – | inactive
18 | CSC1=C(C(=O)N(COCC[Si](C)(C)C)c2ccccc2Br)CCC(C(C)(C)C)C1 (centres undefined) | > 200 µM | 17.8 µM | –
19 | COCCOCN(C(=O)C1=CCC2(CC1)OCCO2)c1ccccc1I | > 200 µM | > 200 µM | –
20 | O=C(O)c1nn(-c2ccccc2-c2n[nH]c(=O)[nH]c2=O)c(=O)[nH]c1=O | > 200 µM | > 200 µM | –
21 | O=C1CCc2ccccc2O1 | > 1700 µM | 1410 µM | –
22 | c1ccc2c(c1)Cc1ccccc1-c1c-2[nH]c2ccccc12 | > 200 µM | 10.5 µM | –
23 | O=C1OCCN1N1C(=O)CC2(CCCCC2)C1=O | > 200 µM | > 200 µM | –

Row | SMILES | EC50 | IC50 | outcome
24 | CC(NC(=O)C(NC(=O)C(NC(=O)C(F)(F)F)C(C)C)C(C)C)C(=O)Oc1c(Cl)c(Cl)c(Cl)c(Cl)c1Cl (centres undefined) | > 200 µM | 141 µM | –
25 | O=CC(=O)C(C(=O)O)[N+](=O)[O-] (centres undefined) | > 200 µM | > 200 µM | –
26 | COc1cc(C2c3cc(O)c(OC)cc3C[C@H]3C(=O)OCC23)ccc1O (some centres undefined) | > 141 µM | > 141 µM | –
27 | CNP1(NC)=NP(NC)(NC)=NP(NC)(NC)=NP(NC)(NC)=N1 | > 3.47 µM | > 3.47 µM | –
28 | COc1ccc(C2C(C(C)=O)=C(C)NC(C)=C2C(C)=O)cc1 | > 200 µM | > 200 µM | –
29 | O=C1CSc2ccnc(=O)n21 | > 200 µM | > 200 µM | –
30 | NC1CC(=O)c2sc(I)cc21 (centres undefined) | > 200 µM | 102 µM | –
31 | CC1=C(c2cc(C(=O)Nc3cccc(Cl)c3)nc(NC#N)n2)Sc2ccccc2N1 | – | – | inactive
32 | CCC(=O)N(c1ccccc1)C(C)CN1CCC(O)(c2ccccc2)CC1 (centres undefined) | > 200 µM | > 200 µM | –
33 | CCOP(=O)(OCC)/C(C#N)=C/c1ccc[nH]1 | > 977 µM | 575 µM | –
34 | CC(=O)O[C@]12CCCCCCC1C1(O)C(O)CCC[C@H]12 (some centres undefined) | > 200 µM | > 200 µM | –
35 | Nc1ncnc2c1ncn2C(=O)NC12CC3CC(CC(C3)C1)C2 | > 100 µM | > 100 µM | –
36 | CCOC(=O)c1cn2c(n1)sc1cc(OC)ccc12 | > 20 µM | 1.7 µM | –
37 | Cc1c(/C=C2\CC/C(=C\c3[nH]c(C(=O)OC(C)(C)C)c(C)c3C)C2=O)[nH]c(C(=O)OC(C)(C)C)c1C | – | – | inactive
38 | C[Si](C)(C)C#CC#C[Si](C)(C)C.[C-]#[O+].[C-]#[O+].[C-]#[O+].[C-]#[O+].[C-]#[O+].[C-]#[O+].[C-]#[O+].[C-]#[O+].[C-]#[O+].[C-]#[O+].[C-]#[O+].[C-]#[O+].[Co].[Co].[Co].[Co] | > 1.91 µM | > 1.91 µM | –
39 | CCCN=c1ssc(=O)n1CCC | > 200 µM | 11.2 µM | –
40 | C/C(=N\Oc1cc(Cl)ncn1)c1ccccn1 | > 200 µM | 30.2 µM | –
41 | O=c1ccc2ccc(OP(=O)(O)O)cc2o1 | > 200 µM | > 200 µM | –
42 | C[Si](C)(CCC(=O)O)O[Si](C)(C)CCC(=O)O | > 646 µM | > 646 µM | –
43 | CCN(CC)/[N+]([O-])=N/OS(=O)(=O)N(C)C | > 200 µM | > 200 µM | –
44 | O=C(NC12CC3CC(CC(C3)C1)C2)C(=O)c1c[nH]c2ccc(Br)cc12 | > 200 µM | 25.7 µM | –
45 | CC1=C(C(=O)CC(=O)C(=O)Nc2cc(C)ccc2C)Sc2ccccc2N1 | > 10 µM | > 10 µM | –
46 | C/C(Sc1ccccc1)=C1/CCCN(Cc2ccccc2)C1 | > 200 µM | 74.1 µM | –
